Measured values taken from patent publication US20060089347A1, “Substituted azepines as histamine h3 receptor antagonists, preparation and therapeutic uses” (Eli Lilly and Company, priority 2002, published 2006).
Counter-ions that a name gives are not always drawn.

Tests used:
[1] = rat pharmacokinetics iv/po; assay type: in vivo, Male Sprague Dawley Rats; details: male, Sprague Dawley, blood; for bioavailability: 3 mg/kg iv or 10 mg/kg po, AUC 0-8 hr po/iv ratio, vehicle water; for half-life: 10 mg/kg po
Description: Non-imidazole containing histamine H3 receptor antagonists disclosed in the literature generally have very poor pharmacokinetic properties (see J. Apelt, et al, J. Med. Chem. 2002, 45, 1128-1141). […] Male Sprague Dawley Rats (n=3 per dose arm) were separately dosed with 3 mg/kg iv or 10 mg/kg po of compound examples 8 and 19 (vehicle: water; dose volume: 1 mL/kg iv, 10 ml/kg po). Approximately 0.5 mL of blood was collected in heparin collection tubes at multiple time points over an 8 or 24 hour period for examples 8 and 19 respectively, and the samples were analyzed using LC/MS/MS.

[2] = molecular target: T1, H3R (Homo sapiens, UniProt Q9Y5N1); test: competitive inhibition SPA binding assay, H3R; details: selectivity panel
T1 construct: expressed in transfected cells; host or cells: HEK293 (clone H3R8)
T1 sequence (Q9Y5N1 whole entry): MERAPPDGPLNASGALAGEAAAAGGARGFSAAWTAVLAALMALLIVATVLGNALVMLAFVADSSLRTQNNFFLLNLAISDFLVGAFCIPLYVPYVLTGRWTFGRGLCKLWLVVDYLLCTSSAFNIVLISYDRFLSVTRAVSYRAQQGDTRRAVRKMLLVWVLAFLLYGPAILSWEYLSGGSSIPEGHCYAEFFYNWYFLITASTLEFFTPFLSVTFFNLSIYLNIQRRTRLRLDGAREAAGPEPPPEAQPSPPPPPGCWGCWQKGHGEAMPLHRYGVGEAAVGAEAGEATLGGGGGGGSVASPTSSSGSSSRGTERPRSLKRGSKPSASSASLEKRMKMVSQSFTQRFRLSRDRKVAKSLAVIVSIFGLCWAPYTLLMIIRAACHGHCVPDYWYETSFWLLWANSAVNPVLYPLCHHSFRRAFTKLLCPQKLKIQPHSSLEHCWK
Text: The inventive compounds can readily be evaluated by using a competitive inhibition Scintillation Proximity Assay (SPA) based on a H3R binding assay using [3H] a methylhistamine as ligand. Stable cell lines, including but not limited to HEK can be transfected with cDNA coding for H3R to prepare membranes used for the binding assay. The technique is illustrated below (Preparation of Histamine Receptor Subtype Membranes) for the histamine receptor subtypes.
(§1) cDNA for the human histamine 3 receptor was cloned and expressed as described in (Preparation of Histamine Receptor Subtye Membranes: A), above. Transfected cells were selected using G418 (500 μ/ml), grown, and tested for histamine binding by the SPA described above. For total binding, cells were assayed in a SPA reaction described above containing 50 mM Tris-HCL (assay buffer), pH 7.6, 1 mg wheat germ agglutinin SPA beads (Amersham Pharmacia Biotech, #RPNQ0001), and 1nM […]-n-alpha-methylhistamine (NEN, NET1027) (total volume per well=200μl). Thioperimide was added to determine non-specific binding. Several clones were selected as positive for binding, and a single clone (H3R8) was used to prepare membranes for binding studies described above. Five micrograms of protein was used per well in the SPA receptor-binding assay. […]

[3] = molecular target: T2, H2R (Homo sapiens, UniProt P25021); test: competitive SPA binding assay, H2R; details: selectivity panel
T2 construct: expressed in transfected cells; host or cells: HEK 293 (clone H2R10)
T2 sequence (P25021 whole entry): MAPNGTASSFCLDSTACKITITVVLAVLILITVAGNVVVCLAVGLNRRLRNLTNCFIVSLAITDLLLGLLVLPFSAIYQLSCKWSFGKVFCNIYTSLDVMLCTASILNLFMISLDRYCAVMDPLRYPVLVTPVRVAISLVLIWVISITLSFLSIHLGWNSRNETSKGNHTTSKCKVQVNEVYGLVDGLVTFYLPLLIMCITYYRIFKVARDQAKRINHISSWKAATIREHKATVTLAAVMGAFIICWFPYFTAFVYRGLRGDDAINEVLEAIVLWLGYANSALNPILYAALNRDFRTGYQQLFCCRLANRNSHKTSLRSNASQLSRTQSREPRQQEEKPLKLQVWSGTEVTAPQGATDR
Description: cDNA for the human histamine 2 receptor was cloned, expressed and transfected into HEK 293 cells as described above. Histamine binding to cells was assayed by SPA described above. For total binding, cells were assayed in a SPA reaction containing 50 mM Tris-HCl (assay buffer), pH 7.6, 1 mg wheat germ agglutinin SPA beads (Amersham PharmaciaBiotech, #RPNQ0001), and 6.2 nM ^3H-tiotidine (Net-688, NEN) (total volume per well=200 μl). Cimetidine (10 μM, Sigma #C4522) was added to appropriate wells to determine non-specific binding.
Several clones were selected as positive for binding, and a single clone (H2R10) was used to prepare membranes for binding studies. Five micrograms of protein was used per well in the SPA receptor-binding assay.
(§2) To investigate the selectivity of the antagonists for the histamine receptors, a competitive binding assay described above was performed. […] Until the present invention, most known H3R antagonists also bound H4R.

[4] = molecular target: T3, H3R membranes (Homo sapiens, UniProt Q9Y5N1); test: [35S]GTPγS binding assay (antagonist activity); assay type: biochemical; details: inhibition of [35S]GTPγS binding to H3R membranes in presence of agonist R(-)alpha methylhistamine
T3 construct: expressed in transfected cells; host or cells: HEK293 (clone H3R8)
T3 sequence (Q9Y5N1 whole entry): as the sequence (Q9Y5N1 whole entry) above
Description: Membranes isolated as described in (Preparation of Histamine Receptor Subtype Membranes) were used in a [35S]GTPχS functional assay. Binding of [35S]GTPχS to membranes indicates agonist activity. Compounds of the invention of Formula I were tested for their ability to inhibit binding in the presence of agonists. Alternately, the same transfected cell lines were used for a cAMP assay wherein H3R agonists inhibited forskolin-activated synthesis of cAMP. Compounds of Formula I were tested for their ability to permit forskolin-stimulated cAMP synthesis in the presence of agonist.
as §1, with “binding.” for “binding. Several clones were selected as positive for binding, and a single clone (H3R8) was used to prepare membranes for binding studies described above. Five micrograms of protein was used per well in the SPA receptor-binding assay.”
Antagonist activity of selected compounds was tested for inhibition of [35S] […] Plates were counted in Wallac Trilux 1450 Microbeta scintillation counter for 1 minute. […]

[5] = molecular target: T4, H1R (Homo sapiens, UniProt P35367); test: competitive SPA binding assay, H1R; details: selectivity panel
T4 construct: expressed in transfected cells; host or cells: HEK293 (clone HIR40), vector pcDNA3.1(+)
T4 sequence (P35367 whole entry): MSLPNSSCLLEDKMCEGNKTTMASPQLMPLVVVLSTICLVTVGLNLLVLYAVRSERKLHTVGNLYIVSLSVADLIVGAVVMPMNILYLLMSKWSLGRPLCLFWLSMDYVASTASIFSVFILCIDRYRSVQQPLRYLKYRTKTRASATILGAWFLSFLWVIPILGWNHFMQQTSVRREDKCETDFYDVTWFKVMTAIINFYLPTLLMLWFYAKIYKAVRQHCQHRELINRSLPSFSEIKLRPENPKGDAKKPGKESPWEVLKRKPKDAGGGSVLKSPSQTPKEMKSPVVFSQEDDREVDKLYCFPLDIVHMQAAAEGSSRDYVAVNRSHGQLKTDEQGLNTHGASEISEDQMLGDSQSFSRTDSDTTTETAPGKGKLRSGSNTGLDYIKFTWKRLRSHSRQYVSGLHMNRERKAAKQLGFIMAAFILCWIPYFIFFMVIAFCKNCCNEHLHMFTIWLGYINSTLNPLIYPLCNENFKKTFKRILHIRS
Description: cDNA for the human histamine 1 receptor (H1R) was cloned into a mammalian expression vector containing the CMV promoter (pcDNA3.1(+), Invitogen) and transfected into HEK293 cells using the FuGENE Tranfection Reagent (Roche Diagnostics Corporation). Transfected cells were selected using G418 (500 μ/ml). Colonies that survived selection were grown and tested for histamine binding to cells grown in 96-well dishes using a scintillation proximity assay (SPA) based radioligand binding assay. Briefly, cells, representing individual selected clones, were grown as confluent monolayers in 96-well dishes (Costar Clear Bottom Plates, #3632) by seeding wells with 25,000 cells and growing for 48 hours (37° C., 5% CO2). Growth media was removed and wells were rinsed two times with PBS (minus Ca^2+ or Mg^2+). For total binding, cells were assayed in a SPA reaction containing 50 mM Tris-HCL (assay buffer), pH 7.6, 1 mg wheat germ agglutinin SPA beads (Amersham Pharmacia Biotech, #RPNQ0001), and 0.8 nM ^3H-pyrilamine (Net-594, NEN) (total volume per well=[…]). Astemizole (10 μM, Sigma #A6424) was added to appropriate wells to determine non-specific binding. Plates were covered with FasCal and incubated at room temperature for 120 minutes. […] Plates were counted in a Wallac Trilux 1450 Microbeta scintillation counter. […]

[6] = molecular target: T5, H4R (Homo sapiens, UniProt Q9H3N8); test: competitive binding assay, GPRv53 (H4R); details: for Ki: competitive binding, selectivity panel; for inhibition of binding to H4R: in contrast to H3R
T5 construct: expressed in transfected cells; host or cells: HEK293 (HEK293 GPRv53 50 cells)
T5 sequence (Q9H3N8 whole entry): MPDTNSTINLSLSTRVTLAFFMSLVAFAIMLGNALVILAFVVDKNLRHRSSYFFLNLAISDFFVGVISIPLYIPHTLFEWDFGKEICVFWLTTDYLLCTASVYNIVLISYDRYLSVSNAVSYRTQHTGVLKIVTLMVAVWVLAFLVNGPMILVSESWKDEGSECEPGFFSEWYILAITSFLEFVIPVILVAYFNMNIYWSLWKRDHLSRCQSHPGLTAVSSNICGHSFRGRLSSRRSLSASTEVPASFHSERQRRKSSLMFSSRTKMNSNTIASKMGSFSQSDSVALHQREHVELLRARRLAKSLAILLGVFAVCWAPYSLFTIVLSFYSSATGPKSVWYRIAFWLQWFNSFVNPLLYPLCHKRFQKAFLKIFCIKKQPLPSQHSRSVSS
Description: cDNA for the human GPRv53 receptor was cloned and expressed as described in (Preparation of Histamine Receptor Subtype Membranes: A), above. Transfected cells were selected, tested for histamine binding, and selected. HEK293 GPRv53 50 cells were grown to confluency in DMEM/F12 (Gibco) supplemented with 5% FBS and 500 ug/ml G418 and washed with Delbecco's PBS (Gibco) and harvested by scraping. Whole cells were homogenized with a Polytron tissuemizer in binding buffer, 50 mM Tris pH 7.5. Cell lysates, 50 ug, were incubated in 96 well dishes with 3 nM (3H) Histamine and compounds in binding buffer for 2 hours at room temperature. Lysates were filtered through glass fiber filters (Perlin Elmer) with a Tomtec cell harverster. Filters were counted with melt-on scintillator sheets (Perlin Elmer) in a Wallac Trilux 1450 Microbeta Scintillation counter for 5 minutes.
as §2

| Structure (SMILES) | bioavailability [1] [%] | half-life [1] [h] | Ki [2] [nM] | Ki [3] [nM] | Ki [4] [nM] | Ki [5] [nM] | Ki [6] [nM] | inhibition of binding to H4R [6] |
| --- | --- | --- | --- | --- | --- | --- | --- | --- |
| CN(C)CC(=O)N1CCCc2cc(OCCCN3CCCCC3)ccc2C1 [Example 8, 2-Dimethylamino-1-[7-(3-piperidin-1-yl-propoxy)-1,3,4,5-tetrahydro-benzo[c]azepin-2-yl]-ethanone] | 49 | 12.2 | – | – | – | – | – | – |
| CC(C)(C)OC(=O)N1CCCc2cc(OCCCN3CCCCC3)ccc2C1 [Example 1, 7-(3-Piperidin-1-yl-propoxy)-1,3,4,5-tetrahydro-benzo[c]azepine-2-carboxylic acid tert-butyl ester] | – | – | 5.1 | 813 | 5.1 | 648 | ≥ 20000 | did not inhibit binding H4R |
| CC(=O)N1CCc2ccc(OCCCN3CCCCC3)cc2CC1 [Example 19, 1-[7-(3-Piperidin-1-yl-propoxy)-1,2,4,5-tetrahydro-benzo[d]azepin-3-yl]-ethanone] | 100 | 12.4 | – | – | – | – | – | – |
| c1cc2c(cc1OCCCN1CCCCC1)CCCNC2 [Example 2, 7-(3-Piperidin-1-yl-propoxy)-2,3,4,5-tetrahydro-1H-benzo[c]azepine dihydrochloride] | – | – | 0.85 | 894 | 0.85 | 1760 | ≥ 20000 | did not inhibit binding H4R |
